Where two headings read alike, the source gives them in different places.
What was measured:
[1] = tested on: Du145; assay: High-throughput calcein AM cytotoxicity assay, Du145; format: cell-based, human
From the text: (§1) Standard errors are depicted with error bars.

[2] = tested on: MCF7; assay: High-throughput calcein AM cytotoxicity assay, MCF7; format: cell-based, human
From the text: as §1

[3] = tested on: HCT-116; assay: High-throughput calcein AM cytotoxicity assay, HCT-116; format: cell-based, human
From the text: as §1

[4] = tested on: Hep3B; assay: High-throughput calcein AM cytotoxicity assay, Hep3B; format: cell-based, human
From the text: as §1

[5] = tested on: NCI-H460; assay: High-throughput calcein AM cytotoxicity assay, NCI-H460; format: cell-based, human
From the text: as §1

[6] = tested on: A549; assay: High-throughput calcein AM cytotoxicity assay, A549; format: cell-based, human
From the text: as §1

[7] = tested on: NCI/ADR-RES; assay: cells; format: cell-based, human
In short: (§2)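 Plated cells received compound dilutions after 1 h attachment and sat 72 h at 37 °C, 5% CO2. Serum was washed off with PBS before calcein AM staining, since serum esterases interfere. Four-parameter fits with variable Hill slope gave IC50s.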

[8] = tested on: SF-268; assay: cells; format: cell-based, human
In short: as §2

[9] = tested on: SK-OV-3; assay: cells; format: cell-based, human
In short: as §2

[10] = tested on: NmuMG; assay: cells; format: cell-based, mouse
In short: as §2

[11] = Hydrolytic stability of the neoglycosidic linkage; format: physicochemical; details: 3 mM in 1:1 DMSO/buffer, one month
Protocol: FIG. 4 is a graphic representation of the results of studies on the hydrolytic stability of neoglycoside 4α. The chemical stability of the neoglycosidic linkage was examined by monitoring the hydrolytic degradation of neoglycoside 4α in a 3 mM solution of 1:1 DMSO/buffer. Three buffers were used, 50 mM acetate buffer (pH 5), 50 mM phosphate buffer (pH 7), and 50 mM Tris buffer (pH 9). Neoglycoside degradation was monitored by reverse phase HPLC on an Agilent Zorbax Eclipse XDB-C8 column (4.6×150 mm) with a flow rate of 0.8 mL min^−1 and a linear gradient of 49% CH3OH/H2O to 89% CH3OH/H2O over 20 min. At t=0, neoglycoside 4α in 500 μL DMSO was added to 500 μL buffer, and the resulting solution was vortexed for 40 sec, then immediately injected onto the HPLC. Peak areas at 220 nm were used to estimate the neoglycoside/aglycon ratio, which is reported as “percent neoglycoside remaining” [Aneoglycoside/(Aneoglycoside+Aaglycon)] for each of the three buffer systems.
Hydrolytic Stability of 4α. The chemical stability of the neoglycosidic linkage was examined by monitoring the hydrolytic degradation of neoglycoside 4α in a 3 mM solution of 1:1 DMSO/buffer. Three buffers were used, 50 mM acetate buffer (pH 5), 50 mM phosphate buffer (pH 7), and 50 mM Tris buffer (pH 9). Neoglycoside degradation was monitored by reverse phase HPLC on an Agilent Zorbax Eclipse XDB-C8 column (4.6×150 mm) with a flow rate of 0.8 mL min^−1 and a linear gradient of 49% CH3OH/H2O to 89% CH3OH/H2O over 20 min. At t=0, neoglycoside 4α in 500 μL DMSO was added to 500 μL buffer, and the resulting solution was vortexed for 40 sec, then immediately injected onto the HPLC. Peak areas at 220 nm were used to estimate the neoglycoside/aglycon ratio, which is reported as “percent neoglycoside remaining” [Aneoglycoside/(Aneoglycoside+Aaglycon)] for each of the three buffer systems (see FIG. 4).
The chemical stability of the neoglycosidic linkage was examined by monitoring the hydrolytic degradation of neoglycoside 4α in a 3 mM solution of 1:1 DMSO/buffer using buffers at three different pHs.

[12] = tested on: nine human cancer cell lines and a mouse mammary normal epithelial control line; assay: High-throughput calcein AM cytotoxicity assay, whole cell line panel; details: cell line panel, 72 h, calcein AM
From the text: In the assay, live cells were distinguished by the presence of a ubiquitous intracellular enzymatic activity which converts the non-fluorescent cell-permeable molecule calcein AM to the intensely fluorescent molecule calcein, which is retained within live cells. The IC50 value for each library member represents at least six replicates of dose-response experiments conducted over five concentrations using two-fold dilutions. […] Standard errors are depicted with error bars. Numerical values and corresponding error values can be found in Table 4. Du145: […]; MCF7: human breast carcinoma; HCT-116: human colon carcinoma, Hep3B: human liver carcinoma; SF-268: human CNS glioblastoma; SK-OV-3: human ovary adenocarcinoma; NCI-H460: human lung carcinoma; A549: human lung adenocarcinoma; NCI/ADR-RES: human breast carcinoma; NmuMG: mouse mammary normal epithelial.
Cell Culture: All cell lines except NmuMG were maintained in RPMI 1640 medium from InVitrogen (Cat No. 11875-085) supplemented with 10% w/v fetal bovine serum (FBS) from ICN (Cat No. 2916154) and penicillin-streptomycin (PS) (100 U/mL and 100 μg/mL) from InVitrogen (Cat No. 15140-122). NmuMG cells were maintained in DMEM medium from InVitrogen (Cat No. 11965-084) supplemented with 10% w/v fetal bovine serum (FBS) from ICN (Cat No. 2916154), 10 μg/ml insulin (InVitrogen Cat No 12585-014), and penicillin-streptomycin (PS) (100 U/mL and 100 μg/mL) from InVitrogen (Cat No. 15140-122). Cells were harvested by trypsinization using 0.25% w/v trypsin and 0.1% w/v EDTA from InVitrogen (Cat No. 15-050-057) and then counted in a hemocytometer in duplicate with better than 10% agreement in field counts. Cells were plated at a cell density of 10,000-15,000 cells/well of each Corning Costar 96-well black tissue culture treated microtiter plate (Fisher Cat No. 07-200-627). Cells were grown for 1 h at 37° C., with 5% CO2 in a humidified incubator to allow cell attachment to occur before compound addition.
Library Member Handling and Preparation for Cytotoxicity Assays: Library members were stored at −20° C. under dessicating conditions before the assay. Library member stocks (100×) were prepared in Corning Costar polypropylene 96-well V-bottom polypropylene microtiter plates (Fisher Cat No. 07-200-695). Five serial 1:2 dilutions were made with anhydrous DMSO at 100× the final concentration used in the assay.
Library Member Addition: The library member-containing plates were diluted 1:10 with complete cell culture media. The 10× stocks (10 μL) were added to the attached cells using a Biomek FX liquid handler (Beckman-Coulter). Library member stocks (10 μL) were added to 90 μL of cells in each plate to insure full mixing of stocks with culture media using a Beckman FX liquid handler with 96-well head.
Determination of Cytotoxicity: Cells were incubated with the library members for 72 h before fluorescence reading. Test plates were removed from the incubator and washed 1× in sterile PBS to remove serum containing calcium esterases. Calcein AM reagent (30 μL, […]) was added and the cells were incubated for 30 min at 37° C. Plates were read for emission using a fluorescein filter (excitation 485 nm, emission 535 nm).
IC50 Calculation: For each library member, at least six dose response experiments were conducted. […] To calculate IC50, percent inhibitions were plotted as a function of log [concentration] and then fit to a four-parameter logistic model that allowed for a variable Hill slope using XLfit 4.1.
Cytotoxicity Assays. All cell lines except NmuMG were maintained in RPMI 1640 medium supplemented with 10% w/v fetal bovine serum (FBS) and penicillin-streptomycin (PS) (100 U/mL and 100 μg/mL).

[13] = target: T1, Na+/K+-ATPase (Homo sapiens, UniProt P05023); assay: Non-radioactive rubidium ion uptake assay, HEK-293 cells; format: cell-based; details: read-out: Na+/K+-ATPase Inhibition IC50
T1 construct: endogenous in cells; host or cells: HEK-293
Protocol: (§3) Na/K-ATPase Assays. Inhibition of Na^+/K^+-ATPase on HEK-293 cells and CHO-K1 cells by the library hits was determined by Aurora Biomed, Inc. using a high-throughput non-radioactive rubidium ion uptake assay. Experiments were conducted in duplicate using three different concentrations. Within each experiment, percent inhibition values at the three concentrations were expressed as the percent reduction of the maximum absorption signal observed for a 0 nM control. IC50 values were determined using the following formula: IC50=[(50−low %)/(high %−low %)]×(high conc.−low conc.)+low conc.
(§4) To assess how these structural modifications impact the ability of library members to inhibit Na^+/K^+-ATPases, a fundamental activity of cardiac glycosides (Paula, S., et al., (2005) Biochemistry 44, 498-510), library hits 5β, 15β, 23β, 27β, 33β, 40β, and digitoxin (1) were submitted to a non-radioactive rubidium uptake assay to gauge Na^+/K^+-ATPase inhibition in both […] human embryonic kidney cells and CHO-K1 hamster ovary cells (Gill, S. et al., (2004) ASSAY and Drug Development Technologies 2, 535-542).

[14] = target: Na+/K+-ATPase (Cricetulus griseus, UniProt A0A8C2N4Z0); assay: Non-radioactive rubidium ion uptake assay, CHO-K1 cells; format: cell-based, hamster; details: read-out: Na+/K+-ATPase Inhibition IC50
Protocol: as §3, §4

[15] = MCF7 cells, read-out: IC50, MCF7
[16] = HCT-116 cells, read-out: IC50, HCT-116
[17] = NCI-H460 cells, read-out: IC50, NCI-H460
[18] = A549 cells, read-out: IC50, A549
[19] = NCI/ADR-RES cells, read-out: IC50, NCI/ADR-RES
[20] = SF-268 cells, read-out: IC50, SF-268
[21] = SK-OV-3 cells, read-out: IC50, SK-OV-3
[22] = NmuMG mouse mammary normal epithelial control line, read-out: IC50, NmuMG

CON([C@@H]1CC[C@@]2(C)[C@H](CC[C@@H]3[C@@H]2CC[C@]2(C)[C@@H](C4=CC(=O)OC4)CC[C@]32O)C1)[C@@H]1O[C@H](CO)[C@@H](O)[C@H](O)[C@H]1O [4α, D-glucoside]
IC50 ([1]; Du145 cells, read-out: IC50): > 25000 nM
IC50 ([2]; MCF7 cells, read-out: IC50): > 25000 nM
IC50 ([3]; HCT-116 cells, read-out: IC50): > 25000 nM
IC50 ([4]; Hep 3B cells, read-out: IC50): > 25000 nM
IC50 ([5]; NCI-H460 cells, read-out: IC50): > 25000 nM
IC50 ([6]; A549 cells, read-out: IC50): > 25000 nM
IC50 ([7]; NCI/ADR-RES cells, read-out: IC50): > 25000 nM
IC50 ([8]; SF-268 cells, read-out: IC50): > 25000 nM
IC50 ([9]; SK-OV-3 cells, read-out: IC50): > 25000 nM
IC50 ([10]; NmuMG cells (mouse mammary normal epithelial control line), read-out: IC50): > 25000 nM
hydrolytic stability ([11]; acidic conditions (pH 5)): slowly hydrolyzed
hydrolytic stability ([11]; neutral or basic conditions (pH 7, pH 9)): completely stable

D-arabinoside [33β]
IC50 ([1]; Du145 cells, read-out: IC50, Du145): 170 nM
IC50 [2, 15]: 300 nM
IC50 [3, 16]: 360 nM
IC50 ([4]; Hep 3B cells, read-out: IC50, Hep 3B): 260 nM
IC50 [5, 17]: 330 nM
IC50 [6, 18]: 340 nM
IC50 [7, 19]: 124 nM
IC50 [8, 20]: 160 nM
IC50 [9, 21]: 470 nM
IC50 [10, 22]: 120 nM
cytotoxicity (in words) [12]: closely mimicked this activity
IC50 [13]: > 300000 nM
IC50 [14]: 170000 nM

CON(C1CCC2(C)C(CCC3C2CCC2(C)C(C4=CC(=O)OC4)CCC32O)C1)C1OC(CO)C(O)C(O)C1O [40β, D-taloside]
IC50 ([1]; Du145, 72 h, calcein AM, read-out: IC50): 200 nM
IC50 [2, 15]: 1400 nM
IC50 [3, 16]: 1900 nM
IC50 ([4]; Hep3B, 72 h, calcein AM, read-out: IC50): 180 nM
IC50 [5, 17]: 800 nM
IC50 [6, 18]: 410 nM
IC50 [7, 19]: 1900 nM
IC50 [8, 20]: 1300 nM
IC50 [9, 21]: 490 nM
IC50 [10, 22]: 480 nM
IC50 [13]: > 200000 nM
IC50 [14]: 180000 nM

CON(C1CCC2(C)C(CCC3C2CCC2(C)C(C4=CC(=O)OC4)CCC32O)C1)C1OCC(O)C(O)C1O [15β, D-lyxoside]
IC50 ([1]; Homo sapiens, DU-145, Du145 cells, read-out: IC50, Du145): 70 nM
IC50 ([2]; Homo sapiens, MCF7, MCF7 cells, read-out: IC50, MCF7): 230 nM
IC50 ([3]; Homo sapiens, HCT-116, HCT-116 cells, read-out: IC50, HCT-116): 170 nM
IC50 ([4]; Homo sapiens, Hep3B, Hep 3B cells, read-out: IC50, Hep 3B): 90 nM
IC50 ([5]; Homo sapiens, NCI-H460, NCI-H460 cells, read-out: IC50, NCI-H460): 90 nM
IC50 ([6]; Homo sapiens, A549, A549 cells, read-out: IC50, A549): 140 nM
IC50 ([7]; Homo sapiens, NCI/ADR-RES, read-out: IC50, NCI/ADR-RES, NCI/ADR-RES cells): 75 nM
IC50 ([8]; Homo sapiens, SF-268, read-out: IC50, SF-268, SF-268 cells): 90 nM
IC50 ([9]; Homo sapiens, SK-OV-3, read-out: IC50, SK-OV-3, SK-OV-3 cells): 160 nM
IC50 ([10]; Mus musculus, read-out: IC50, NmuMG): 69 nM
cytotoxicity (in words) [12]: significantly more potent than digitoxin against some cell lines
IC50 [13]: > 300000 nM
